Each compound was assayed against T1, NLRP3 (Homo sapiens, UniProt Q96P20) (assay: THP-1 cell assay (LPS priming, nigericin), IL1β release by HTRF; called pyroptosis assay, THP IC50). Conditions: NLRP3 inhibitory activity; THP-1 cells, 1.0 ug/mL LPS, compound 3 hrs, nigericin 5 uM 1 hr, IL1β in supernatant.
T1 construct: Seed THP-1 cells (5.56*10^5 cells/mL) containing 1.0 ug/mL LPS; endogenous in cells; host or cells: THP-1 cells
T1 sequence (Q96P20 whole entry): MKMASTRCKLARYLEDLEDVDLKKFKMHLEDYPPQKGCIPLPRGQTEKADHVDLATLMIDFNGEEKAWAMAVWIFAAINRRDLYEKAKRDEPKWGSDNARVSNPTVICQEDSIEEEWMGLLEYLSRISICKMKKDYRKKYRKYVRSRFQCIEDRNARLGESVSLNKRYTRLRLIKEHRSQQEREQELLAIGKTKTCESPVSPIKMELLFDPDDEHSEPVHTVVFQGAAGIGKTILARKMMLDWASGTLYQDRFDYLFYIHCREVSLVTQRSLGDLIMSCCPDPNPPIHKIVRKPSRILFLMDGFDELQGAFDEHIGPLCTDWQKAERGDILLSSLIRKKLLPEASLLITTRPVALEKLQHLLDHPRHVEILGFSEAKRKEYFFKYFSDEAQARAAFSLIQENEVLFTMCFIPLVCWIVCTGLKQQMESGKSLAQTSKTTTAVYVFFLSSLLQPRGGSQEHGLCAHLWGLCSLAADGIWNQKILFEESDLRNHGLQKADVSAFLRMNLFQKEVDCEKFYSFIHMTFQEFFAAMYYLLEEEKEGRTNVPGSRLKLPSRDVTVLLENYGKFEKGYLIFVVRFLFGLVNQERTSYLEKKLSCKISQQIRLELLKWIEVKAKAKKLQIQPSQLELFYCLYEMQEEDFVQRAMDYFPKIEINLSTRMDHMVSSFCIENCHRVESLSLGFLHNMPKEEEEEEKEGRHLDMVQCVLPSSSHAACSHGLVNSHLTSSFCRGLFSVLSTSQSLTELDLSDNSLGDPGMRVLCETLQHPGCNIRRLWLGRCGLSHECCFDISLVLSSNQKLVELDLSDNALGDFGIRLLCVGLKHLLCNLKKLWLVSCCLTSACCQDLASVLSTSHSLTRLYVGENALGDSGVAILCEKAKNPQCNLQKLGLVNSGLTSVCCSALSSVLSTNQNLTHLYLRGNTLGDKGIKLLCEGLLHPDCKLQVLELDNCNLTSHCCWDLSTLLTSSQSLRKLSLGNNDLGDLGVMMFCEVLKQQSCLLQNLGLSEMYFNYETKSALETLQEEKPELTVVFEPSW
Assay type: cell-based
Outline: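 THP-1 cells were primed with 1.0 ug/mL LPS in serum-free RPMI 1640 alongside compound (10 doses from 5 uM, 1:3) for 3 h at 37° C. Nigericin (final 5 uM) was then added for 1 h. Supernatant IL1β was quantified by HTRF against a standard curve, with IC50 from a four-parameter fit.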
O=C(Nc1c(-c2ccnc3[nH]ccc23)ccc2c1CCC2)NS(=O)(=O)c1cnn(CC2CC2)c1 [Example 5, N-((5-(1H-pyrrolo[2,3-b]pyridin-4-yl)-2,3-dihydro-1H-inden-4-yl)carbamoyl)-1-(cyclopropylmethyl)-1H-pyrazole-4-sulfonamide] was tested, and the IC50 was ≤ 30 nM. For Cc1cc2c(c(NC(=O)NS(=O)(=O)c3ccn(CC4CCC4)n3)c1-c1ccn3nccc3c1)CCC2 [Example 11, 1-(cyclobutylmethyl)-N-((6-methyl-5-(pyrazolo[1,5-a]pyridin-5-yl)-2,3-dihydro-1H-inden-4-yl)carbamoyl)-1H-pyrazole-3-sulfonamide], the IC50 was ≤ 30 nM. In the case of Cc1cc2c(c(NC(=O)NS(=O)(=O)C3CC(OC4CC4)C3)c1-c1ccnc3[nH]ccc13)CCC2 (stereo not shown) [Example 3, 3-cyclopropoxy-N-((6-methyl-5-(1H-pyrrolo[2,3-b]pyridin-4-yl)-2,3-dihydro-1H-inden-4-yl)carbamoyl)cyclobutane-1-sulfonamide], the IC50 is reported as 30 to 300 nM. In the case of Cn1ccc2c(-c3ccc4c(c3NC(=O)NS(=O)(=O)c3cc(C(C)(C)O)cs3)CCC4)ccnc21 [Example 41, 4-(2-hydroxypropan-2-yl)-N-((5-(1-methyl-1H-pyrrolo[2,3-b]pyridin-4-yl)-2,3-dihydro-1H-inden-4-yl)carbamoyl)thiophene-2-sulfonamide], the IC50 is reported as ≤ 30 nM. Cc1cc2c(c(NC(=O)NS(=O)(=O)c3cnn(CC4CC4)c3)c1-c1ccc3cncn3c1)CCC2 [Example 20, 1-(cyclopropylmethyl)-N-((5-(imidazo[1,5-a]pyridin-6-yl)-6-methyl-2,3-dihydro-1H-inden-4-yl)carbamoyl)-1H-pyrazole-4-sulfonamide] gave an IC50 of 30 to 300 nM. Cc1cc2c(c(NC(=O)NS(=O)(=O)c3ccnc(N4CCOCC4)c3)c1-c1ccn3nccc3c1)CCC2 [Example 32, N-((6-methyl-5-(pyrazolo[1,5-a]pyridin-5-yl)-2,3-dihydro-1H-inden-4-yl)carbamoyl)-2-morpholinopyridine-4-sulfonamide] was tested, and the IC50 was ≤ 30 nM. CO[C@@H](C)Cn1ccc(S(=O)(=O)NC(=O)Nc2c3c(cc(C)c2-c2ccn4nccc4c2)CCC3)n1 [Example 26, (S)-1-(2-methoxypropyl)-N-((6-methyl-5-(pyrazolo[1,5-a]pyridin-5-yl)-2,3-dihydro-1H-inden-4-yl)carbamoyl)-1H-pyrazole-3-sulfonamide] was tested, and the IC50 was ≤ 30 nM. With O=C(Nc1c2c(cc(F)c1-c1ccn3nccc3c1)CCC2)NS(=O)(=O)c1ccn(CC2CC2)n1 [Example 24, 1-(cyclopropylmethyl)-N-((6-fluoro-5-(pyrazolo[1,5-a]pyridin-5-yl)-2,3-dihydro-1H-inden-4-yl)carbamoyl)-1H-pyrazole-3-sulfonamide] the IC50 was ≤ 30 nM. Compound Cc1cc2c(c(NC(=O)NS(=O)(=O)c3ccn(C4CC4)n3)c1-c1ccn3nccc3c1)OCC2 [Example 83, 1-cyclopropyl-N-((5-methyl-6-(pyrazolo[1,5-a]pyridin-5-yl)-2,3-dihydrobenzofuran-7-yl)carbamoyl)-1H-pyrazole-3-sulfonamide] has an IC50 of 30 to 300 nM. With Cc1cc2c(c(NC(=O)NS(=O)(=O)c3cncc(N(C)C4CC4)c3)c1-c1ccn3nccc3c1)CCC2 [Example 29, 5-(cyclopropyl(methyl)amino)-N-((6-methyl-5-(pyrazolo[1,5-a]pyridin-5-yl)-2,3-dihydro-1H-inden-4-yl)carbamoyl)pyridine-3-sulfonamide] the IC50 was 30 to 300 nM. In the case of Cc1cc2c(c(NC(=O)NS(=O)(=O)c3ccn(C[C@@H]4CCO4)n3)c1-c1ccn3nccc3c1)CCC2 [Example 91, (S)—N-((6-methyl-5-(pyrazolo[1,5-a]pyridin-5-yl)-2,3-dihydro-1H-inden-4-yl)carbamoyl)-1-(oxetan-2-ylmethyl)-1H-pyrazole-3-sulfonamide], the IC50 is reported as ≤ 30 nM. For CC(C)(O)c1csc(S(=O)(=O)NC(=O)Nc2c(-c3ccnc4c3ccn4C3COC3)ccc3c2CCC3)c1 [Example 59, 4-(2-hydroxypropan-2-yl)-N-((5-(1-(oxetan-3-yl)-1H-pyrrolo[2,3-b]pyridin-4-yl)-2,3-dihydro-1H-inden-4-yl)carbamoyl)thiophene-2-sulfonamide], the IC50 was 30 to 300 nM. In the case of Cc1cc2c(c(NC(=O)NS(=O)(=O)c3ccn(C4CC4)n3)c1-c1ccn3cnnc3c1)CCC2 [Example 93, N-((5-([1,2,4]triazolo[4,3-a]pyridin-7-yl)-6-methyl-2,3-dihydro-1H-inden-4-yl)carbamoyl)-1-cyclopropyl-pyrazole-3-sulfonamide], the IC50 is reported as ≤ 30 nM. For O=C(Nc1c(-c2ccn3nccc3c2)ccc2c1CCC2)NS(=O)(=O)c1cncc(NC2CC2)c1 [Example 31, 5-(cyclopropylamino)-N-((5-(pyrazolo[1,5-a]pyridin-5-yl)-2,3-dihydro-1H-inden-4-yl)carbamoyl)pyridine-3-sulfonamide], the IC50 was ≤ 30 nM. In the case of Cc1cc2c(c(NC(=O)NS(=O)(=O)c3ccn(C4CC4)n3)c1-c1ccc3ccnn3c1)CCC2 [Example 92, 1-cyclopropyl-N-((6-methyl-5-(pyrazolo[1,5-a]pyridin-6-yl)-2,3-dihydro-1H-inden-4-yl)carbamoyl)-1H-pyrazole-3-sulfonamide], the IC50 is reported as 30 to 300 nM. With N#Cc1cc2c(c(NC(=O)NS(=O)(=O)c3cnn(CC4CC4)c3)c1-c1ccn3cncc3c1)CCC2 [Example 13, N-((6-cyano-5-(imidazo[1,5-a]pyridin-7-yl)-2,3-dihydro-1H-inden-4-yl)carbamoyl)-1-(cyclopropylmethyl)-1H-pyrazole-4-sulfonamide] the IC50 was ≤ 30 nM.

Source: patent US20240400561A1, “NOVEL SUBSTITUTED SULFONYLUREA COMPOUNDS AS INHIBITORS OF INTERLEUKIN-1 ACTIVITY” (Viva Star Biosciences (Suzhou) Co., Ltd., priority 2021, published 2024)
